Data: US20110165198A1, “METHOD FOR REDUCING LIPID ABSORPTION BY AN ANIMAL” (priority 2008, published 2011)

Legend:
C57bl6j mice [1] = assay: Lipid excretion in feces of mice fed a high fat diet; assay type: in vivo
Description: (§1) Adult male […] purchased at 8 week of age from Janvier Elevage (Le Genest-St-Isle, France) were individually housed and maintained ad libitum on high fat diet and water for 2 weeks. Seven mice were randomly allocated in 3 groups and fed with a high fat diet (lipids represented 50% of daily energy) during 2 weeks. For one kilogram, the composition of the high fat diet was: 235 g of casein, 201 g of saccharose, 3.5 g L-cystine, 85 g of starch, 116 g of maltodextrine, 60 g of cellulose, 12 g of vitamins mix, 51.5 g de mineral mix and 236 g of lard and 13 g of canola oil (UPAE, Jouy en Josas, France). Then, N-oleoyl-ethanolamide or (Z)-(R)-9-octadecenamide, N-(2-hydroxyethyl, 1-methyl) was added to the diet at the concentration of 100 mg/kg/bw. The mice are kept under treatment during 4 weeks. During the nutritional intervention, daily food intake has been monitored and the mice were weighted 3 times per week. During the last week of the experiment, the mice were kept during 5 days in metabolic cages to collect urine and feces. Lipids were extracted from feces after acidification using chloridric acid using chloroform/methanol (2:1 v/v) method. Total lipids were weighted, results were reported in mg of lipids per g of feces weight. Fat absorption was assessed using the following formula: Fat Absorption (% intake)=100*((Fat intake, g/d-fecal fat excretion, g/d)/fat intake). Example 1 was repeated except that N-oleoyl-ethanolamide as added to the diet at two different concentrations (0.1 or 1 g/kg/bw).

C57bl6j mice [2] = assay: Intestinal lipid (fat) absorption in mice fed a high fat diet; assay type: in vivo
Description: as §1

[3] = given orally in diet at 0.1 g/kg/bw (group C1 of Table 2), Example 2
[4] = given orally in diet at 100 mg/kg/bw, 4 weeks, feces collected over 5 days in last week, Example 1
[5] = given orally in diet at 1 g/kg/bw (group C2 of Table 2), Example 2
[6] = given orally in diet at 100 mg/kg/bw, 4 weeks, Fat Absorption (% intake), Example 1

| SMILES | Lipid Excretion (mg/g of Feces) MV (C57bl6j mice [1]; [3]) | Lipid Excretion (mg/g of Feces) MV (C57bl6j mice [1]; [4]) | Lipid Excretion (mg/g of Feces) MV (C57bl6j mice [1]; [5]) | Intestinal Lipid Absorption (%) MV (C57bl6j mice [2]; [3]) [%] | Intestinal Lipid Absorption (%) MV (C57bl6j mice [2]; [6]) [%] | Intestinal Lipid Absorption (%) MV (C57bl6j mice [2]; [5]) [%] |
| --- | --- | --- | --- | --- | --- | --- |
| CCCCCCCC/C=C\CCCCCCCC(=O)NCCO [C1, N-oleoyl-ethanolamide] | 55.31 mg/g of Feces | 53.7 mg/g of Feces | 45.56 mg/g of Feces | 97.4 | 95.61 | 97.76 |
| CCCCCCCC/C=C\CCCCCCCC(=O)N[C@H](C)CO [C2, (Z)-(R)-9-octadecenamide, N-(2-hydroxyethyl,1-methyl)] | – | 65.6 mg/g of Feces | – | – | 95.05 | – |
